Measured values as given in article PMC9774648, “Synthesis, Physicochemical Properties and Molecular Docking of New Benzothiazole Derivatives as Antimicrobial Agents Targeting DHPS Enzyme” (Antibiotics, 2022).
In brackets after ≈: the same amount, converted by molar mass. Where two headings read alike, the source gives them in different places.

Assays:
S. aureus (ATCC: 6538) = test: Agar well diffusion, inhibition zone, S. aureus; format: cell-based; conditions: agar well diffusion, 15 mg/mL, 100 μL per well, 37 °C 24 h, mean ± SD, triplicate; for zone of inhibition at 15000 µg/mL: Staphylococcus aureus, read-out: Diameter of the Inhibition Zone, S. aureus
S. mutans (ATCC: 25175) = test: Agar well diffusion, inhibition zone, S. mutans; format: cell-based; conditions: agar well diffusion, 15 mg/mL, 100 μL per well, 37 °C 24 h, mean ± SD, triplicate; for zone of inhibition at 15000 µg/mL: Streptococcus mutans, read-out: Diameter of the Inhibition Zone, S. mutans
[1] = system: K. pneumonia (ATCC: 4415); test: Agar well diffusion, inhibition zone, K. pneumonia; format: cell-based; conditions: for zone of inhibition at 15000 µg/mL: Klebsiella pneumoniae, read-out: Diameter of the Inhibition Zone, K. pneumonia
[2] = system: P. aeruginosa (ATCC: 27853); test: Agar well diffusion, inhibition zone, P. aeruginosa; format: cell-based; conditions: for zone of inhibition at 15000 µg/mL: Pseudomonas aeruginosa, read-out: Diameter of the Inhibition Zone, P. aeruginosa
E. coli (ATCC: 3008) = test: Agar well diffusion, inhibition zone, E. coli; format: cell-based; conditions: for zone of inhibition at 15000 µg/mL: Escherichia coli, read-out: Diameter of the Inhibition Zone, E. coli
[3] = system: C. albicans (ATCC: 10231); test: Agar well diffusion, inhibition zone, C. albicans; format: cell-based; conditions: Candida albicans, 15 mg/mL, 100 μL per well, mean ± SD, triplicate, read-out: Diameter of the Inhibition Zone, C. albicans
S. aureus = test: MIC, twofold serial dilution, S. aureus; format: cell-based; conditions: Staphylococcus aureus; twofold serial dilution in broth, 37 °C 16–20 h; read-out: The Minimum Inhibitory Concentration (MIC), S. aureus
Protocol: The new synthetic compounds, 6a–c, 12a–c, 14a–c, 16a–c and 19a–e, were tested in vitro to evaluate antibacterial activities against Gram-negative and Gram-positive bacteria, such as E. coli (ATCC: 3008), K. pneumonia (ATCC: 4415) and P. aeruginosa (ATCC: 27853), as an example for Gram-negative bacteria, as well as S. aureus (ATCC: 6538) and S. mutans (ATCC: 25175) for Gram-positive bacteria. The antifungal activities were evaluated also for the novel compounds in vitro against C. albicans (ATCC: 10231). The antibacterial and antifungal activities were determined by the agar-diffusion method using gentamicin, ampicillin and sulfadiazine, example of sulfa drug, as standard drugs against Gram-negative and Gram-positive, while nystatin was used as standard drug against the fungal strain. Table 1 summarizes the results for all tested compounds as the average diameter of inhibition zones of microbial growth around the discs in mm ± SD.
For each strain, three to five isolated colonies were selected from the fresh agar plate and were transferred into a tube containing 3–4 mL of sterile broth medium. The bacterial suspension was mixed well and incubated at 35–37 °C for 2–6 h. The turbidity of the bacterial suspension should be equal to or greater than the turbidity of a McFarland Standard 0.5. After that, 1 mg of the tested compound (antimicrobial agent) was dissolved in 1 mL DMSO and two-fold serial dilution was done using broth medium. A fixed volume of the prepared bacterial inoculum was added to each tube and incubated for at 37 °C 16–20 h. The MIC is defined as the lowest concentration of the antimicrobial agent that inhibits visible growth of the tested isolate as observed with the unaided eye.

S. mutans = test: MIC, twofold serial dilution, S. mutans; format: cell-based; conditions: Streptococcus mutans; twofold serial dilution in broth, 37 °C 16–20 h; read-out: The Minimum Inhibitory Concentration (MIC), S. mutans
K. pneumonia = test: MIC, twofold serial dilution, K. pneumonia; format: cell-based; conditions: Klebsiella pneumoniae, read-out: The Minimum Inhibitory Concentration (MIC), K. pneumonia
P. aeruginosa = test: MIC, twofold serial dilution, P. aeruginosa; format: cell-based; conditions: Pseudomonas aeruginosa, read-out: The Minimum Inhibitory Concentration (MIC), P. aeruginosa
[4] = target: DHPS enzyme (dihydropteroate synthase) (Bacillus anthracis, UniProt Q81VW8); test: biochemical; conditions: for inhibition at 0.1 µg/mL / inhibition at 1 µg/mL / inhibition at 10 µg/mL / inhibition at 100 µg/mL: read-out: Inhibition % against DHPS enzyme
[5] = agar well diffusion, 15 mg/mL, 100 μL per well, 37 °C 24 h, mean ± SD, triplicate
[6] = twofold serial dilution in broth, 37 °C 16–20 h

Sequence of DHPS enzyme (dihydropteroate synthase) (Q81VW8 1-280): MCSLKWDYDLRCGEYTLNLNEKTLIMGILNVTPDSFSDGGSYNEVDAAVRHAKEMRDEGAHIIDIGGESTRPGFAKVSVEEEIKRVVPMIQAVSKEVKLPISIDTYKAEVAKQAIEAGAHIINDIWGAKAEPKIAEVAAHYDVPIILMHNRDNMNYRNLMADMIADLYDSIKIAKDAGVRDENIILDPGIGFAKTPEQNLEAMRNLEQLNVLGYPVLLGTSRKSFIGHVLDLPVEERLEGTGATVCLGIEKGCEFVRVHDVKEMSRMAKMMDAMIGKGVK

SMILES	zone of inhibition at 15000 µg/mL (S. aureus (ATCC: 6538))	zone of inhibition at 15000 µg/mL (S. mutans (ATCC: 25175))	zone of inhibition at 15000 µg/mL [1, 5]	zone of inhibition at 15000 µg/mL [2, 5]	Diameter of the Inhibition Zone, E. coli (E. coli (ATCC: 3008); [5])	zone of inhibition at 15000 µg/mL [3]	MIC (S. aureus)	MIC (S. mutans)	MIC (K. pneumonia; [6])	MIC (P. aeruginosa; [6])	IC50 [4]	inhibition at 0.1 µg/mL ([4]; 0.1 μg/mL)	inhibition at 1 µg/mL ([4]; 1 μg/mL)	inhibition at 10 µg/mL ([4]; 10 μg/mL)	inhibition at 100 µg/mL ([4]; 100 μg/mL)	melting point	Diameter of the Inhibition Zone, K. pneumonia [1, 5]	other results
O=c1[nH][nH]c(-c2ccc(F)cc2)c1-c1nc2ccccc2s1 [Compound 16a, 4-(Benzo[d]thiazole-2-yl)-5-(4-florophenyl)-1H-pyrazol-3(2H)-one]	15.3 ± 0.5 mm	25 ± 0.6 mm	17.3 ± 0.6 mm	16.6 ± 0.5 mm	-	12.3 ± 0.5 mm	1610 µM (≈ 500 µg/mL)	200 µM (≈ 62.3 µg/mL)	803 µM (≈ 250 µg/mL)	1610 µM (≈ 500 µg/mL)	35.9 µM	12%	26%	49%	70%	238 to 240 °C		
Cc1ccc(S(=O)(=O)NNC(=O)/C(=C/c2ccc(Cl)cc2)c2nc3ccccc3s2)cc1 [Compound 14b]	31.6 ± 0.6 mm	21.6 ± 0.6 mm	15.6 ± 0.6 mm	24.3 ± 0.6 mm	-		129 µM (≈ 62.4 µg/mL)	258 µM (≈ 125 µg/mL)	1030 µM (≈ 500 µg/mL)	517 µM (≈ 250 µg/mL)	34.6 µM	12%	24%	47%	65%	188 to 189 °C		
O=c1[nH][nH]c(-c2ccc(Cl)cc2)c1-c1nc2ccccc2s1 [Compound 16b, 4-(Benzo[d]thiazole-2-yl)-5-(4-chlorophenyl)-1H-pyrazol-3(2H)-one]	35.3 ± 0.6 mm	24.6 ± 0.6 mm		25.6 ± 0.6 mm	-	10.6 ± 0.5 mm	191 µM (≈ 62.6 µg/mL)	191 µM (≈ 62.6 µg/mL)		762 µM (≈ 250 µg/mL)	23.9 µM	16%	31%	52%	72%	236 to 237.5 °C	-	
CNC(C)C1CCC(N)C(OC2C(N)CC(N)C(OC3OCC(C)(O)C(NC)C3O)C2O)O1 (stereo not shown) [Gentamicin, reference compound]																		zone of inhibition at 15000 µg/mL ([1]; 24 h): 25 ± 0.5 mm; zone of inhibition at 15000 µg/mL ([2]; 24 h): 30 ± 0.5 mm; zone of inhibition at 15000 µg/mL (E. coli (ATCC: 3008); 24 h): 27 ± 0.5 mm; MIC (K. pneumonia): 65 µM (≈ 31 µg/mL); MIC (P. aeruginosa): 131 µM (≈ 62.6 µg/mL)
Cc1ccc(-c2[nH][nH]c(=O)c2-c2nc3ccccc3s2)cc1 [Compound 16c, 4-(Benzo[d]thiazole-2-yl)-5-(p-tolyl)-1H-pyrazol-3(2H)-one]	40.3 ± 0.6 mm	31.3 ± 0.6 mm	24.3 ± 0.6 mm		-		25 µM (≈ 7.68 µg/mL)	203 µM (≈ 62.4 µg/mL)	813 µM (≈ 250 µg/mL)		35.9 µM	13%	31%	48%	68%	239 to 241 °C		Diameter of the Inhibition Zone, P. aeruginosa [2, 5]: -
Cc1ccc(S(=O)(=O)NNC(=O)/C(=N/Nc2ccc(Cl)cc2)c2nc3ccccc3s2)cc1 [Compound 19d, N′-(2-(Benzo[d]thiazol-2-yl)-2-(2-(4-chlorophenyl)hydrazono)acetyl)-4-methylbenzenesulfono-hydrazide]				21.6 ± 0.6 mm	-					500 µM (≈ 250 µg/mL)						280 to 281 °C	-	Diameter of the Inhibition Zone, S. aureus (S. aureus (ATCC: 6538)): -; Diameter of the Inhibition Zone, S. mutans (S. mutans (ATCC: 25175)): -
Nc1ccc(S(=O)(=O)Nc2ncccn2)cc1 [Sulfadiazine, reference compound]	21.5 ± 0.6 mm	22.2 ± 1.1 mm	15.9 ± 0.9 mm	20.6 ± 1.4 mm			2000 µM (≈ 500 µg/mL)	499 µM (≈ 125 µg/mL)	999 µM (≈ 250 µg/mL)	999 µM (≈ 250 µg/mL)	28.5 µM							zone of inhibition at 15000 µg/mL (E. coli (ATCC: 3008); [5]): 21.4 ± 0.4 mm; inhibition at 0.1 µg/mL [4]: 11%; inhibition at 1 µg/mL [4]: 26%; inhibition at 10 µg/mL [4]: 56%; inhibition at 100 µg/mL [4]: 75%
Cc1ccc(NN=C(C(=O)NNS(=O)(=O)c2ccccc2)c2nc3ccccc3s2)cc1 [Compound 19c, N′-(2-(Benzo[d]thiazol-2-yl)-2-(2-(4-methylphenyl)hydrazono)acetyl)benzene-sulfonohydrazide]	11 ± 1 mm			16 ± 1 mm	-	11.6 ± 0.5 mm				2150 µM (≈ 1000 µg/mL)						262 to 263 °C	-	Diameter of the Inhibition Zone, S. mutans (S. mutans (ATCC: 25175)): -
